# ChEMBL document CHEMBL1681651, “A broad spectrum anticancer nucleoside with selective toxicity against human colon cells in vitro” (2011)
# Assays:
# Format in all cases: functional
# A498 [1] = assay: Growth inhibition of human A498 cells assessed as cell growth at 1 mM after 48 hrs by SRB assay; details: A498, 48 h, read-out: Activity
# HCT-116 [2] = assay: Growth inhibition of human HCT116 cells assessed as cell growth at 1 mM after 48 hrs by SRB assay; details: HCT-116, 48 h, read-out: Activity
# NCI-H522 [3] = assay: Growth inhibition of human NCI-H522 cells assessed as cell growth at 1 uM after 48 hrs by SRB assay; details: NCI-H522, 48 h, read-out: Activity
# CAKI-1 = assay: Growth inhibition of human Caki1 cells assessed as cell growth at 100 uM after 48 hrs by SRB assay; details: CAKI-1, 48 h, read-out: Activity
# ACHN = assay: Growth inhibition of human ACHN cells after 48 hrs by […] growth inhibition assay
# [4] = Growth inhibition of human Hs 578T cells assessed as cell growth at 10 uM after 48 hrs by SRB assay; details: read-out: Activity
# RXF 393 [5] = assay: Growth inhibition of human RXF393 cells assessed as cell growth at 0.1 uM after 48 hrs by SRB assay; details: RXF 393, 48 h, read-out: Activity
# SF-295 [6] = assay: Growth inhibition of human SF295 cells assessed as cell growth at 1 mM after 48 hrs by SRB assay; details: SF-295, 48 h, read-out: Activity
# TK-10 = assay: Growth inhibition of human TK10 cells after 48 hrs by […] growth inhibition assay; details: TK-10, 48 h
# NCI-H226 [7] = assay: Growth inhibition of human NCI-H226 cells assessed as cell growth at 100 uM after 48 hrs by SRB assay; details: NCI-H226, 48 h, read-out: Activity
# NCI-H322M [8] = assay: Growth inhibition of human NCI-H322M cells after 48 hrs by […] growth inhibition assay
# MDA-MB-435 = assay: Growth inhibition of human MDA-MB-435 cells after 48 hrs by SRB assay; details: MDA-MB-435, 48 h
# [9] = Growth inhibition of human […] cells after 48 hrs by […] growth inhibition assay
# HCT-116 [10] = assay: Growth inhibition of human HCT116 cells assessed as cell growth at 1 uM after 48 hrs by SRB assay; details: HCT-116, 48 h, read-out: Activity
# SF-268 = assay: Growth inhibition of human SF268 cells assessed as cell growth at 100 uM after 48 hrs by SRB assay; details: SF-268, 48 h, read-out: Activity
# UACC-62 = assay: Growth inhibition of human UACC62 cells assessed as cell growth at 1 mM after 48 hrs by SRB assay; details: UACC-62, 48 h, read-out: Activity
# CCRF-CEM = assay: Growth inhibition of human CCRF-CEM cells assessed as cell growth at 10 uM after 48 hrs by SRB assay; details: read-out: Activity
# HOP-92 [11] = assay: Growth inhibition of human HOP92 cells assessed as cell growth at 1 mM after 48 hrs by SRB assay; details: HOP-92, 48 h, read-out: Activity
# NCI-H226 [12] = assay: Growth inhibition of human NCI-H226 cells assessed as cell growth at 10 uM after 48 hrs by SRB assay; details: NCI-H226, 48 h, read-out: Activity
# NCI-H322M [13] = assay: Growth inhibition of human NCI-H322M cells assessed as cell growth at 1 mM after 48 hrs by SRB assay; details: read-out: Activity
# IGROV-1 = assay: Growth inhibition of human IGROV1 cells assessed as cell growth at 1 uM after 48 hrs by SRB assay; details: IGROV-1, 48 h, read-out: Activity
# M14 = assay: Growth inhibition of human M14 cells assessed as cell growth at 1 mM after 48 hrs by SRB assay; details: M14, 48 h, read-out: Activity
# SK-MEL-5 = assay: Growth inhibition of human SK-MEL-5 cells assessed as cell growth at 1 uM after 48 hrs by SRB assay; details: SK-MEL-5, 48 h, read-out: Activity
# NCI-H522 [14] = assay: Growth inhibition of human NCI-H522 cells assessed as cell growth at 1 mM after 48 hrs by SRB assay; details: NCI-H522, 48 h, read-out: Activity
# EKVX = assay: Growth inhibition of human EKVX cells assessed as cell growth at 100 uM after 48 hrs by SRB assay; details: read-out: Activity
# Malme-3M = assay: Growth inhibition of human MALME-3M cells assessed as cell growth at 1 mM after 48 hrs by SRB assay; details: read-out: Activity
# HCT-116 [15] = assay: Growth inhibition of human HCT116 cells assessed as cell growth at 0.1 uM after 48 hrs by SRB assay; details: HCT-116, 48 h, read-out: Activity
# SK-MEL-2 = assay: Growth inhibition of human SK-MEL-2 cells after 48 hrs by […] growth inhibition assay; details: SK-MEL-2, 48 h
# HOP-92 [16] = assay: Growth inhibition of human HOP92 cells assessed as cell growth at 10 uM after 48 hrs by SRB assay; details: HOP-92, 48 h, read-out: Activity
# SF-295 [17] = assay: Growth inhibition of human SF295 cells assessed as cell growth at 1 uM after 48 hrs by SRB assay; details: SF-295, 48 h, read-out: Activity
# RXF 393 [18] = assay: Growth inhibition of human RXF393 cells assessed as cell growth at 1 mM after 48 hrs by SRB assay; details: RXF 393, 48 h, read-out: Activity
# MOLT-4 = assay: Growth inhibition of human MOLT4 cells assessed as cell growth at 10 uM after 48 hrs by SRB assay; details: MOLT-4, 48 h, read-out: Activity
# MCF7 = assay: Growth inhibition of human MCF7 cells assessed as cell growth at 10 uM after 48 hrs by SRB assay; details: MCF7, 48 h, read-out: Activity
# DU-145 = assay: Growth inhibition of human DU145 cells assessed as cell growth at 1 uM after 48 hrs by SRB assay; details: DU-145, 48 h, read-out: Activity
# A498 [19] = assay: Growth inhibition of human A498 cells assessed as cell growth at 100 uM after 48 hrs by SRB assay; details: A498, 48 h, read-out: Activity
# [20] = read-out: LC50 (the source's name)
# [21] = read-out: pLC50 (the source's name) (converted)
structure (smiles),measurement,setting,value
CCOC(=O)C[C@H]1[C@@H](O[Si](C)(C)C(C)(C)C)[C@H](n2cnc3c(NC(=O)Nc4ccccc4)ncnc32)O[C@@H]1CNC(=O)NC,growth at 1000 µM,A498 [1],-41%
same,growth at 1000 µM,HCT-116 [2],-88%
same,growth at 1 µM,NCI-H522 [3],85%
same,growth at 100 µM,CAKI-1,88%
same,GI50,ACHN; read-out: GI50,8.55 µM
same,CC50,ACHN; [20],> 100 µM
same,TGI,ACHN; read-out: TGI,> 100 µM
same,GI50,ACHN; read-out: pGI50 (converted),8.51 µM
same,CC50,ACHN; [21],> 100 µM
same,TGI,ACHN; read-out: pTGI,> 100 µM
same,growth at 10 µM,[4],90%
same,growth at 0.1 µM,RXF 393 [5],99%
same,growth at 1000 µM,SF-295 [6],24%
same,GI50,TK-10; read-out: GI50,12.4 µM
same,CC50,TK-10; [20],> 100 µM
same,TGI,TK-10; read-out: TGI,40.5 µM
same,GI50,TK-10; read-out: pGI50 (converted),12.3 µM
same,CC50,TK-10; [21],> 100 µM
same,TGI,TK-10; read-out: pTGI (converted),40.7 µM
same,growth at 100 µM,NCI-H226 [7],71%
same,GI50,NCI-H322M [8]; read-out: GI50,> 100 µM
same,CC50,NCI-H322M [8]; [20],> 100 µM
same,TGI,NCI-H322M [8]; read-out: TGI,> 100 µM
same,GI50,NCI-H322M [8]; read-out: pGI50 (converted),> 100 µM
same,CC50,NCI-H322M [8]; [21],> 100 µM
same,TGI,NCI-H322M [8]; read-out: pTGI,> 100 µM
same,GI50,MDA-MB-435; read-out: GI50,6.21 µM
same,LC50,MDA-MB-435; read-out: LC50,> 100 µM
same,TGI,MDA-MB-435; read-out: TGI,> 100 µM
same,GI50,MDA-MB-435; read-out: pGI50 (converted),6.17 µM
same,LC50,MDA-MB-435; read-out: pLC50 (converted),> 100 µM
same,TGI,MDA-MB-435; read-out: pTGI (converted),> 100 µM
same,GI50,[9]; read-out: GI50,1090 nM
same,CC50,[9]; [20],59 µM
same,TGI,[9]; read-out: TGI,4.57 µM
same,GI50,[9]; read-out: pGI50 (converted),1100 nM
same,CC50,[9]; [21],58.9 µM
same,TGI,[9]; read-out: pTGI (converted),4.57 µM
same,growth at 1 µM,HCT-116 [10],113%
same,growth at 100 µM,SF-268,40%
same,growth at 1000 µM,UACC-62,60%
same,growth at 10 µM,CCRF-CEM,92%
same,growth at 1000 µM,HOP-92 [11],-61%
same,growth at 10 µM,NCI-H226 [12],102%
same,growth at 1000 µM,NCI-H322M [13],72%
same,growth at 1 µM,IGROV-1,94%
same,growth at 1000 µM,M14,-56%
same,growth at 1 µM,SK-MEL-5,100%
same,growth at 1000 µM,NCI-H522 [14],-2%
same,growth at 100 µM,EKVX,53%
same,growth at 1000 µM,Malme-3M,17%
same,growth at 0.1 µM,HCT-116 [15],93%
same,GI50,SK-MEL-2; read-out: GI50,5.42 µM
same,CC50,SK-MEL-2; [20],> 100 µM
same,TGI,SK-MEL-2; read-out: TGI,33.1 µM
same,GI50,SK-MEL-2; read-out: pGI50 (converted),5.37 µM
same,CC50,SK-MEL-2; [21],> 100 µM
same,TGI,SK-MEL-2; read-out: pTGI (converted),33.1 µM
same,growth at 10 µM,HOP-92 [16],12%
same,growth at 1 µM,SF-295 [17],91%
same,growth at 1000 µM,RXF 393 [18],-59%
same,growth at 10 µM,MOLT-4,76%
same,growth at 10 µM,MCF7,89%
same,growth at 1 µM,DU-145,123%
same,growth at 100 µM,A498 [19],13%
